Here are results for 21 compounds from patent US9365522B2, “Pyrazole amide derivative” (AMGEN INC., priority 2015, dated 2016).

For one assay, the target named is T1, ligand binding domain of human ROR gamma (Homo sapiens, UniProt P51449).
T1 construct: NM_001001523; expressed in transfected cells; host or cells: HEK293T
T1 sequence (P51449 247-497 isoform P51449-2): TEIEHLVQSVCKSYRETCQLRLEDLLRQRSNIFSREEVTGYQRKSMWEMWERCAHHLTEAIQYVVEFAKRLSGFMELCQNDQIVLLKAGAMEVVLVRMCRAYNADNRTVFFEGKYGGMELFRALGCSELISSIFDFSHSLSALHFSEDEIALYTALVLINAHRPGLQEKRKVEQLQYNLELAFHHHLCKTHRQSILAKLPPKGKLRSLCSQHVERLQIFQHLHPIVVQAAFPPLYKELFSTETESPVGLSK
The assay is described as follows: ROR gamma reporter gene assay (GAL4-RORγ LBD luciferase, Dual-Glo). The format is cell-based. The following applies: HEK293T cells transfected with pM-ROR gamma, 8 concentrations 3.5 nM to 10.5 μM, 24 h incubation. An outline of the steps: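 Transient GAL4-RORγ LBD (aa 247-497) / 5×UAS-luc / pRL-CMV cotransfection in HEK293T, charcoal-stripped 10% FBS. 8-pt dose, 3.5 nM–10.5 μM, 0.075% DMSO final. 24 h, 37 °C, 5% CO2. Dual-Glo firefly/renilla readout; pIC50 from curve fit.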
(In general: Reporter assays use an easily measured gene product as a stand-in for the process of interest.)
In the case of `CC(C)(C)CN(CC(=O)c1c(Cl)cncc1Cl)C(=O)c1cnn(C2CCC(C)(C(=O)O)CC2)c1Cl` (stereo not drawn) [Example 276, trans-4-(5-chloro-4-((2-(3,5-dichloropyridin-4-yl)-2-oxoethyl)-(2,2-dimethylpropyl)carbamoyl)pyrazol-1-yl)-1-methylcyclohexane-1-carboxylic acid], the “result (pIC50, inhibition of RORγ transcriptional activity)” value is 6.91.

Still in this assay, the particulars now being: HEK293T cells transfected with pM-ROR gamma, 8 concentrations 3.5 nM to 10.5 μM, 24 h incubation; read-out: result (pIC50, inhibition of RORγ transcriptional activity) (converted).
Take `CC(C)(C)CN(CC(=O)c1c(Cl)cccc1C(F)(F)F)C(=O)c1cnn(C23CCC(C(=O)O)(CC2)CC3)c1C(F)(F)F` [Example 263, 4-(4-((2-(2-chloro-6-(trifluoromethyl)phenyl)-2-oxoethyl)-(2,2-dimethylpropyl)carbamoyl)-5-(trifluoromethyl)pyrazol-1-yl)bicyclo[2.2.2]octane-1-carboxylic acid]: the IC50 was 5890 pM.
As to `CC1(C)[C@@H]2C[C@H](N(CC(=O)c3c(Cl)cncc3Cl)C(=O)c3cnn([C@H]4CC[C@H](C(=O)O)CC4)c3C(F)(F)F)C[C@@H]21` [Example 264, trans-4-(4-((2-(3,5-dichloropyridin-4-yl)-2-oxoethyl)-((1R,3r,5S)-6,6-dimethyl-3-bicyclo[3.1.0]hexanyl)carbamoyl)-5-(trifluoromethyl)pyrazol-1-yl)cyclohexane-1-carboxylic acid], the IC50 was 8130 pM.
Still for that read-out and setting: the result for `CC(C)(C)CN(CC(=O)c1c(Cl)cccc1C(F)(F)F)C(=O)c1cnn([C@H]2CC[C@](C)(C(=O)O)CC2)c1C(F)(F)F` [Example 265] reads 18200 pM; that for `CC1(C)CC(CN(CC(=O)c2c(Cl)cc(F)cc2Cl)C(=O)c2cnn(C34CCC(C(=O)O)(CC3)CC4)c2C(F)(F)F)C1` [Example 266, 4-(4-((2-(2,6-dichloro-4-fluorophenyl)-2-oxoethyl)-((3,3-dimethylcyclobutyl)methyl)carbamoyl)-5-(trifluoromethyl)pyrazol-1-yl)bicyclo[2.2.2]octane-1-carboxyIic acid], 5370 pM.
Still for that read-out and setting: the figure for `CC12CCC(CN(CC(=O)c3c(Cl)cncc3Cl)C(=O)c3cnn([C@H]4CC[C@](C)(C(=O)O)CC4)c3C(F)(F)F)(CC1)C2` [Example 267, trans-4-(4-((2-(3,5-dichloropyridin-4-yl)-2-oxoethyl)-((1-methyl-4-bicyclo[2.2.1]heptanyl)methyl)carbamoyl)-5-(trifluoromethyl)pyrazol-1-yl)-1-methylcyclohexane-1-carboxylic acid] is 13500 pM; for `Cc1cc(Cl)cc(C)c1C(=O)CN(Cc1cc(F)cc(F)c1)C(=O)c1cnn([C@H]2CC[C@H](C(=O)O)CC2)c1C(F)(F)F` [Example 268, trans-4-(4-((2-(4-chloro-2,6-dimethylphenyl)-2-oxoethyl)-((3,5-difluorophenyl)methyl)carbamoyl)-5-(trifluoromethyl)pyrazol-1-yl)cyclohexane-1-carboxylic acid] it is 107000 pM; for `Cc1cc(C)c(C(=O)CN(Cc2cc(F)cc(F)c2)C(=O)c2cnn([C@H]3CC[C@H](C(=O)O)CC3)c2C(F)(F)F)c(Cl)c1` [Example 269, trans-4-(4-((2-(2-chloro-4,6-dimethylphenyl)-2-oxoethyl)-((3,5-difluorophenyl)methyl)carbamoyl)-5-(trifluoromethyl)pyrazol-1-yl)cyclohexane-1-carboxylic acid] it is 8130 pM.
Regarding `C[C@]1(C(=O)O)CC[C@H](n2ncc(C(=O)N(CC(=O)c3c(Cl)cccc3C(F)(F)F)CC3(F)CCCC3)c2C(F)(F)F)CC1` [Example 270, trans-4-(4-((2-(2-chloro-6-(trifluoromethyl)phenyl)-2-oxoethyl)-((1-fluorocyclopentyl)methyl)carbamoyl)-5-(trifluoromethyl)pyrazol-1-yl)-1-methylcyclohexane-1-carboxylic acid], the IC50 is 16200 pM.
With `O=C(CN(CC1(F)CCCC1)C(=O)c1cnn(C23CCC(C(=O)O)(CC2)CC3)c1C(F)(F)F)c1c(Cl)cc(F)cc1Cl` [Example 271, 4-(4-((2-(2,6-dichloro-4-fluorophenyl)-2-oxoethyl)-((1-fluorocyclopentyl)methyl)carbamoyl)-5-(trifluoromethyl)pyrazol-1-yl)bicyclo[2.2.2]octane-1-carboxylic acid], the IC50 was 5130 pM.
Still for that read-out and setting: the figure for `C[C@]1(C(=O)O)CC[C@H](n2ncc(C(=O)N(CC(=O)c3c(Cl)cncc3Cl)CC3(F)CCCC3)c2C(F)(F)F)CC1` [Example 272, trans-4-(4-((2-(3,5-dichloropyridin-4-yl)-2-oxoethyl)-((1-fluorocyclopentyl)methyl)carbamoyl)-5-(trifluoromethyl)pyrazol-1-yl)-1-methylcyclohexane-1-carboxylic acid] is 11200 pM; for `CC1(C)CCC(N(CC(=O)c2c(Cl)cc(F)cc2Cl)C(=O)c2cnn(C34CCC(C(=O)O)(CC3)CC4)c2C(F)F)CC1` [Example 273, 4-(4-((2-(2,6-dichloro-4-fluorophenyl)-2-oxoethyl)-(4,4-dimethylcyclohexyl)carbamoyl)-5-(difluoromethyl)pyrazol-1-yl)bicyclo[2.2.2]octane-1-carboxylic acid] it is 14100 pM; for `CC12CCC(CN(CC(=O)c3c(Cl)cc(F)cc3Cl)C(=O)c3cnn([C@H]4CC[C@](C)(C(=O)O)CC4)c3C(F)(F)F)(CC1)C2` [Example 274, trans-4-(4-((2-(2,6-dichloro-4-fluorophenyl)-2-oxoethyl)-((1-methyl-4-bicyclo[2.2.1]heptanyl)methyl)carbamoyl)-5-(trifluoromethyl)pyrazol-1-yl)-1-methylcyclohexane-1-carboxylic acid] it is 8320 pM.
On to `CC12CCC(CN(CC(=O)c3c(Cl)cc(Cl)cc3Cl)C(=O)c3cnn([C@H]4CC[C@](C)(C(=O)O)CC4)c3C(F)(F)F)(CC1)C2` [Example 275, trans-4-(4-((1-methyl-4-bicyclo[2.2.1]heptanyl)methyl-(2-oxo-2-(2,4,6-trichlorophenyl)ethyl)carbamoyl)-5-(trifluoromethyl)pyrazol-1-yl)-1-methylcyclohexane-1-carboxylic acid], for which the IC50 is below 3470 pM.
Same read-out and setting: the figure for `Cc1cc(Cl)c(C(=O)CN(C(=O)c2cnn([C@H]3CC[C@](C)(C(=O)O)CC3)c2C(F)(F)F)[C@H]2C[C@@H]3[C@H](C2)C3(C)C)c(Cl)c1` [Example 277, trans-4-(4-((2-(2,6-dichloro-4-methylphenyl)-2-oxoethyl)((1R,3r,5S)-6,6-dimethylbicyclo[3.1.0]hexan-3-yl)carbamoyl)-5-(trifluoromethyl)-1H-pyrazol-1-yl)-1-methylcyclohexanecarboxylic acid] is 7240 pM; for `CC1(C)[C@@H]2C[C@H](N(CC(=O)c3c(Cl)cccc3Cl)C(=O)c3cnn([C@H]4CC[C@](C)(C(=O)O)CC4)c3C(F)(F)F)C[C@@H]21` [Example 278, trans-4-(4-((2-(2,6-dichlorophenyl)-2-oxoethyl)((1R,3r,5S)-6,6-dimethylbicyclo[3.1.0]hexan-3-yl)carbamoyl)-5-(trifluoromethyl)-1H-pyrazol-1-yl)-1-methylcyclohexanecarboxylic acid] it is 11700 pM; for `Cc1cc(C)c(C(=O)CN(C(=O)c2cnn([C@H]3CC[C@](C)(C(=O)O)CC3)c2C(F)(F)F)C2CCC(C)(C)CC2)c(Cl)c1` [Example 279, trans-4-(4-((2-(2-chloro-4,6-dimethylphenyl)-2-oxoethyl)-(4,4-dimethylcyclohexyl)carbamoyl)-5-(trifluoromethyl)pyrazol-1-yl)-1-methylcyclohexane-1-carboxylic acid] it is 38000 pM.
On the same count and under the same terms, the figure for `Cc1cc(Cl)cc(C)c1C(=O)CN(C(=O)c1cnn([C@H]2CC[C@](C)(C(=O)O)CC2)c1C(F)(F)F)C1CCC(C)(C)CC1` [Example 280, trans-4-(4-((2-(4-chloro-2,6-dimethylphenyl)-2-oxoethyl)-(4,4-dimethylcyclohexyl)carbamoyl)-5-(trifluoromethyl)pyrazol-1-yl)-1-methylcyclohexane-1-carboxylic acid] is 245000 pM; for `C[C@]1(C(=O)O)CC[C@H](n2ncc(C(=O)N(CC(=O)c3c(Cl)cccc3Cl)CC3(F)CCCC3)c2C(F)(F)F)CC1` [Example 281, trans-4-(4-((2-(2,6-dichlorophenyl)-2-oxoethyl)-((1-fluorocyclopentyl)methyl)carbamoyl)-5-(trifluoromethyl)pyrazol-1-yl)-1-methylcyclohexane-1-carboxylic acid] it is 4270 pM.
For `Cc1cc(Cl)c(C(=O)CN(CC2(F)CCCC2)C(=O)c2cnn([C@H]3CC[C@](C)(C(=O)O)CC3)c2C(F)(F)F)c(Cl)c1` [Example 282, trans-4-(4-((2-(2,6-dichloro-4-methylphenyl)-2-oxoethyl)-((1-fluorocyclopentyl)methyl)carbamoyl)-5-(trifluoromethyl)pyrazol-1-yl)-1-methylcyclohexane-1-carboxylic acid], the IC50 was 3390 pM.
The same measure, in the same setting: the result for `CC1(C)CCC(N(CC(=O)c2c(Cl)cccc2Cl)C(=O)c2cnn([C@H]3CC[C@](C)(C(=O)O)CC3)c2C(F)(F)F)CC1` [Example 283, trans-4-(4-((2-(2,6-dichlorophenyl)-2-oxoethyl)-(4,4-dimethylcyclohexyl)carbamoyl)-5-(trifluoromethyl)pyrazol-1-yl)-1-methylcyclohexane-1-carboxylic acid] reads 9120 pM.
